In patent publication US5808139A (Ligand Pharmaceuticals Incorporated, priority 1994, dated 1998):
“Also recorded” adds a separate entry of the source.

Assays:
[1] = test system: progesterone receptor (T47D cells); assay: Antagonist assay in T47D (human breast cancer) cells (Tables 1 and 2); assay type: cell-based; conditions: for Efficacy (% maximal response relative to RU-486), T47D cells: antagonist activity; for IC50: concentration required to reduce the maximal response by 50%, read-out: Potency (IC50), T47D cells
Excerpt: The functional activities of the cyclocymopol analogues in the human breast cell line, T47D, were also investigated. T47D cells have proven to be a particularly useful model to investigate the molecular actions of sex steroids because they contain endogenous functional receptors for, and respond to, progestins, and their respective antagonists. […] In T47D cells, progestins induce de novo synthesis of a plasma-associated alkaline phosphatase, which has been reported to be similar, if not identical, to the alkaline phosphatase present in the normal breast and human milk. These tests were conducted according to the following illustrative example.
The assay was also run using T47D (human breast cancer) cells.

[2] = test system: endometrium of the uterus; assay: Decidualization assay in pseudopregnant mice, oil-induced uterine weight gain; assay type: in vivo; conditions: for Inhibition of decidualization weight gain: vs oil control; for Net Uterine Weight Gain: intraluminal, autopsy Day 7, oil alone control 334.7 +/- 41.0
Experimental: A successful pregnancy requires not only the effective collision and fusion of egg and spermatozoon, but also the provision of a receptive and supportive uterus. The preparation of the endometrium of the uterus for implantation (i.e. decidualization) starts well before the blastocyst arrives in the uterus.
Psuedopregnant mice (i.e. mated with vasectomized males) were used to establish the assay system. […] At 16 hours of Day 4, a small volume of sesame oil (10 μl) was introduced to the lumen of the right uterine horn to serve as a decidual stimulus. The left horn was left undisturbed to serve as an internal control. Autopsies were performed on Day 7 to assess uterine wet weight gains in the stimulated versus non-stimulated uterine horns.
Each of these compounds was intraluminally administered in an appropriate dosage on Day 4 along with the sesame oil administration.

[3] = test system: human progesterone receptor altered at the Tau-1 location; assay: Co-transfection assay in CV-1 cells, progesterone receptor altered at Tau-1, antagonist activity; assay type: cell-based; conditions: for Efficacy (% maximal response relative to RU-486), CV-1 cells: antagonist activity; for IC50: concentration required to reduce the maximal response by 50%, read-out: Potency (IC50), CV-1 cells
Excerpt: (§1) This assay is described in further detail in U.S. Pat. Nos. 4,981,784 and 5,071,773, which are incorporated herein by reference. The co-transfection assay provides a method for identifying functional ligands (either agonists which mimic, or antagonists which inhibit, the effect of hormones) for ligand-responsive receptor proteins.
(§2) The co-transfection assay provides a mechanism to evaluate ability of a compound to function as an agonist or antagonist of the activity modulated by an intracellular receptor. The co-transfection assay mimics an in vivo system in the laboratory. In the co-transfection assay, a cloned gene for an intracellular receptor is introduced by transfection (a procedure to induce cells to take up foreign genes) into a background cell substantially devoid of endogenous intracellular receptors. This introduced gene directs the recipient cells to make the intracellular receptor protein. A second gene is also introduced (co-transfected) into the same cells in conjunction with the intracellular receptor gene. This second gene functions as a reporter for the transcription-modulating activity of the target intracellular receptor. The reporter acts as a surrogate for the products normally expressed by a gene under control of the target receptor and its natural hormone.
(§3) A preferred reporter gene is one which expresses the firefly enzyme luciferase. The co-transfection assay can detect small molecule agonists or antagonists of target intracellular receptors. Exposing the cells to an agonist ligand increases reporter activity in the transfected cells that can be conveniently measured, reflecting ligand-dependent, intracellular receptor-mediated increases in reporter transcription. To detect antagonists, the co-transfection assay is carried out in the presence of a constant concentration of an agonist known to induce a defined reporter signal. Increasing concentrations of a test antagonist will decrease the reporter signal. The co-transfection assay is therefore useful to detect both agonists and antagonists of specific intracellular receptors. It determines not only whether a compound interacts with a particular intracellular receptor, but also whether this interaction mimics (agonizes) or blocks (antagonizes) the effects of the natural regulatory molecules on target gene expression.
(§4) Co-transfected cells are exposed to a medium to which is added the potential ligand that is being evaluated. If the candidate ligand diffuses into the cell and binds to the receptor and the resulting complex functions as an agonist, it binds to the co-transfected reporter gene and initiates transcription. When that gene is one that expresses, for example, luciferase, luciferase is produced which catalyzes a light-emitting reaction with its substrate luciferin. Thus, after cell lysis and the introduction of luciferin, the amount of light produced relative to the concentration of candidate ligand used in the assay provides a measure of the potency and efficacy of the compound tested. Antagonist activity is evaluated by adding the candidate ligand and a known agonist to the co-transfected cells.
(§5) The receptor cDNA was introduced in a mammalian expression vector under the control of the Rous Sarcoma virus LTR. […] A reporter vector was also transfected, containing a firefly luciferase gene under the control of the hormone-responsive promoter. […] The level of luciferase activity was then measured in cell extracts. Light emission is directly proportional to the effectiveness of the hormone-receptor complex in activating gene expression.
A total of three replicates per concentration point were tested for each compound, and the EC50 was calculated for each positive response. Both agonist and antagonist activity for each test compound was determined in parallel. […]

[4] = molecular target: T1, human progesterone receptor (Homo sapiens, UniProt P06401); assay: Progesterone receptor binding (displacement of 3H-progesterone, whole cell extract of transfected CV-1 cells); set-up: expressed in transfected cells; host or cells: CV-1 cells (calcium phosphate transfection), whole cell extract
T1 sequence (P06401 1-933): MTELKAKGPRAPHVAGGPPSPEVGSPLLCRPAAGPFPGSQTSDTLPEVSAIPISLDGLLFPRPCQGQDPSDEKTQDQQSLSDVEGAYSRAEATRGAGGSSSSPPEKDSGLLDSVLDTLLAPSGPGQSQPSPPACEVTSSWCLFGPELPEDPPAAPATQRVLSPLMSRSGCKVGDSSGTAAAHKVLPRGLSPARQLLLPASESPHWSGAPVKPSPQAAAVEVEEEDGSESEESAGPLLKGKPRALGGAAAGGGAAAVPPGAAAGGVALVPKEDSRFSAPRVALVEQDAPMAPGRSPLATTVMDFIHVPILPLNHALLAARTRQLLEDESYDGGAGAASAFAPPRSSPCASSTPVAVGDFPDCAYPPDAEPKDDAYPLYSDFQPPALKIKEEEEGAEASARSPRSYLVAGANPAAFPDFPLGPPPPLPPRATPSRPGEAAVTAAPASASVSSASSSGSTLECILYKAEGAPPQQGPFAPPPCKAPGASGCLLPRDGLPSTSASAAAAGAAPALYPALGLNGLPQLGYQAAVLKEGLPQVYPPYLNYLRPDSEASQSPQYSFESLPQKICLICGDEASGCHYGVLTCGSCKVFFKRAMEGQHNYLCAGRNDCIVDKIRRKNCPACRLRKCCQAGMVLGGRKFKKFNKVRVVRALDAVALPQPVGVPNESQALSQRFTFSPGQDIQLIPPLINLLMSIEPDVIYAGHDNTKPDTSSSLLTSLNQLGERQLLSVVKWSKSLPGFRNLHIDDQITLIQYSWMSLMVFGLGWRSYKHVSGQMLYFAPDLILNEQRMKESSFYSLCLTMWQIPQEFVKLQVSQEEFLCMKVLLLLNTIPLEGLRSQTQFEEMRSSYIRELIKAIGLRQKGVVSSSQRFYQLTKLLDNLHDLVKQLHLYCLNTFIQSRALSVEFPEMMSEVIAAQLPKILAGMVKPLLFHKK
Experimental: These tests were conducted according to the following illustrative example.
CO2 for 40 hours prior to harvest.
After incubation, cells were harvested and washed in phosphate buffered saline. Whole cell receptor extract was prepared by homogenizing the harvested cells in Tris-HCl buffer, pH=7.4, containing 30% glycerol, 1 mM EDTA, 12 mM monothioglycerol, 1 mM PMSF, and 0.5M potassium chloride. The homogenate was incubated at 4° C. for 60 min with resuspension every 10 min. The suspension was centrifuged (105,000×g, 60 min) and the supernatant was collected and flash frozen in liquid nitrogen and stored frozen at -70° C.
To a […] final volume incubation mixture, […] of 7.5% (w/v) dextran-coated charcoal suspension in gelatin phosphate buffer was added. The mixture was vortexed and incubated at 4° C. for 10 min and then centrifuged at 3000 rpm for 10 min. The amount of bound tritiated hormone was determined by liquid scintillation spectrophotometry of an aliquot of the supernatant. […]

[5] = molecular target: T1, human progesterone receptor; assay: Co-transfection (cis-trans) assay in CV-1 cells, agonist and antagonist mode; assay type: cell-based; set-up: expressed in transfected cells; host or cells: CV-1 cells (calcium phosphate transfection), whole cell extract; conditions: antagonist mode with 10^-8 M progesterone
Excerpt: as §1, §2, §3, §4, §5
A total of three replicates per concentration point were tested for each compound, and the EC50 was calculated for each positive response. Both agonist and antagonist activity for each test compound was determined in parallel.

[6] = test system: T47D cells; assay: Alkaline phosphatase activity in T47D cells (induction and its inhibition); assay type: cell-based, human; conditions: ligand alone; three days
Excerpt: The functional activities of the cyclocymopol analogues in the human breast cell line, T47D, were also investigated. T47D cells have proven to be a particularly useful model to investigate the molecular actions of sex steroids because they contain endogenous functional receptors for, and respond to, progestins, and their respective antagonists. Moreover, these cells contain exceptionally high titers of progesterone receptors and are exquisitely sensitive to the actions of progestins in a manner quite similar to their actions in normal and neoplastic mammary epithelial cells. In T47D cells, progestins induce de novo synthesis of a plasma-associated alkaline phosphatase, which has been reported to be similar, if not identical, to the alkaline phosphatase present in the normal breast and human milk. These tests were conducted according to the following illustrative example. […] For routine induction of alkaline phosphatase, cells were treated for three days with two media changes and harvested as described below. […] Nuclei were sedimented at 2500 rpm, and the supernatant was saved as cytosol. The protein content of the cytosol was assayed by the method of Bradford. Alkaline phosphatase activity was determined by incubating one volume of cell extract with three volumes of 1 mg/ml p-nitrophenol phosphate prepared in DEAM (1M diethanolamine, pH=9, containing 2 mM magnesium chloride) at room temperature for 20 min. At the end of the incubation time, the reaction was stopped with an equal volume of 1N NaOH. Ten standards of p-nitrophenol were prepared in DEAM buffer and absorbance was read at 405 nm. Alkaline phosphatase activity is expressed as pmol p-nitrophenol formed/min/mg protein.

Row | IC50 [1] | IC50 [3] | Kd [4] | Progesterone receptor agonist/antagonist activity [5] | SMILES | Efficacy (% maximal response relative to RU-486), T47D cells [1] | Inhibition of decidualization weight gain ([2]; 5 mg) | Net Uterine Weight Gain ([2]; 5 mg) | Efficacy (% maximal response relative to RU-486), CV-1 cells [3] | Agonist activity, alkaline phosphatase induction [6] | Inhibition of decidualization weight gain ([2]; 0.1 mg) | Net Uterine Weight Gain ([2]; 0.1 mg)
1 | 125 nM | 700 nM | 55 nM |  | C=C1C=C(C)CC(C)(C)C1Cc1ccc([N+](=O)[O-])cc1 (stereo not shown) [I, 1-Methylidene-6-(4'-nitrophenyl)methyl-3,5,5-trimethylcyclohex-2-ene] | 75% | approximately 81% | 63.9 ± 20.9 mg | 95% |  |  | 
2 |  |  |  | progesterone receptor agonist activity | C=C1CC[C@@H](Br)C(C)(C)[C@H]1Cc1cc(OC)c(Br)cc1OC(C)=O [SO-51] |  |  |  |  | functional agonists; also recorded: increased the activity of intracellular alkaline phosphatase in a concentration-dependent manner |  | 
3 |  |  |  |  | C=C1CCCC(C)(C)C1Cc1cc(OC)c(Br)cc1O (stereo in doubt) [J, (3R)-1-Debromocyclocymopol monomethyl ether] | 85% | ~91% | 30.7 ± 16.2 mg | 95% |  |  | 
4 |  |  |  |  | CN(C)c1ccc([C@H]2C[C@]3(C)[C@@H](CC[C@]3(O)CCCO)[C@@H]3CCC4=CC(=O)CCC4=C32)cc1 [ZK299, reference compound] |  |  |  |  |  | approximately 88% | 41.1 ± 21.0 mg
5 | 325 nM | 1800 nM | 95 nM |  | C=C1CC[C@@H](Br)C(C)(C)[C@@H]1Cc1cc(OC)c(I)cc1O [V, (3R)-4'-Iodocyclocymopol monomethyl ether] | 85% |  |  | 95% |  |  | 
6 | 475 nM | 450 nM | 925 nM |  | C=C1[C@H](O)C[C@@H](Br)C(C)(C)[C@@H]1Cc1cc(OC)c(Br)cc1O [E, (3R,5R)-5-Hydroxycyclocymopol monomethyl ether] | 85% |  |  | 85% |  |  | 
7 | 500 nM | 1600 nM | 269 nM |  | C=C1CC[C@@H](C)C(C)(C)[C@@H]1Cc1cc(OC)c(Br)cc1O (relative stereo) [LL, trans-1-Methylidene-2-(2'-hydroxy-4'-bromo-5'-methoxyphenyl)methyl-3,3,4-trimethylcyclohexane] | 74% |  |  | 91% |  |  | 
8 | 3600 nM | 30 nM | 625 nM |  | C=C1C=C(C)[C@@H](CCO)C(C)(C)[C@@H]1Cc1cc(OC)c(Br)cc1O (relative stereo) [JJ, trans-1-Methylidene-4-(2-hydroxy)ethyl-6-(2'-hydroxy-4'-bromo-5'-methoxyphenyl)methyl-3,5,5-trimethylcyclohex-2-ene] | 74% |  |  | 48% |  |  | 

Row | SMILES | IC50 [1] | IC50 [3] | Kd [4] | Progesterone receptor agonist/antagonist activity [5] | Efficacy (% maximal response relative to RU-486), T47D cells [1] | Inhibition of decidualization weight gain ([2]; 5 mg) | Net Uterine Weight Gain ([2]; 5 mg) | Efficacy (% maximal response relative to RU-486), CV-1 cells [3] | Agonist activity, alkaline phosphatase induction [6] | Inhibition of decidualization weight gain ([2]; 0.1 mg) | Net Uterine Weight Gain ([2]; 0.1 mg)
9 | C=C1C=CCC(C)(C)C1Cc1cc(OC)c(Br)cc1OC(C)=O (stereo not shown) [L, 1-Methylidene-6-(2'-acetoxy-4'-bromo-5'-methoxyphenyl)methyl-5,5-dimethylcyclohex-2-ene] | 200 nM | 825 nM | 90 nM |  | 75% |  |  | 55% |  |  | 
